Results taken from patent US11759462B2, “Spirocyclic compounds as tryptophan hydroxylase inhibitors” (priority 2013, dated 2023).
pIC50: −log10 of the molar value. Read-outs that look alike come from different tables or passages of the source.

Key:
[1] = test system: jejunal mucosal 5-HT in mice (C57 BL6); experiment: Intestinal 5-HT depletion assay (Example B, single 150 mg/kg oral dose); format: in vivo, mouse; settings: one day after oral administration of a single 150 mg/kg dose, P-value class (ANOVA)
Summary of the method: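 C57 BL6 mice received one 150 mg/kg oral gavage dose; jejunal mucosa was homogenized in acidic trichloroacetic acid buffer and 5-HT measured by HPLC. Levels normalized to BCA protein, expressed as mean percent reduction versus vehicle ± SEM; ANOVA significance.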

[2] = target: T1, Recombinant human TPH1 (MBP tagged) (Homo sapiens, UniProt P17752); experiment: TPH1 in vitro inhibition assay (kinetic fluorescence); format: biochemical
T1 construct: cloning full length human TPH1 cDNA in to a bacterial pMAL-c5E expression vector; made in house; host or cells: E. coli BL21 (DE3)
T1 sequence (P17752 1-444): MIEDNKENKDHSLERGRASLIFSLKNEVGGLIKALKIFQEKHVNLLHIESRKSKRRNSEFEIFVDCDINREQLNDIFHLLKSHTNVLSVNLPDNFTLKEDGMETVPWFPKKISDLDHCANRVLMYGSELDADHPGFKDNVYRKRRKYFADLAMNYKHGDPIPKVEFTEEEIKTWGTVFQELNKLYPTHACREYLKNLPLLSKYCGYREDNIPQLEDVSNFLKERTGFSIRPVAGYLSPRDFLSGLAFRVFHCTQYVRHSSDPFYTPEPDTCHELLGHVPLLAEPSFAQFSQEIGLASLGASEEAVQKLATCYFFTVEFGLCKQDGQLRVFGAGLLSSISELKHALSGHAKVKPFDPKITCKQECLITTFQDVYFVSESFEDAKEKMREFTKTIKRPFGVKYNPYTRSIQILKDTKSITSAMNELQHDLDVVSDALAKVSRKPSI
Summary of the method: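 Final mix: 15 nM MBP-TPH1, 30 μM Trp, 36 μM 6-methyltetrahydropterin, 25 μM ferrous ammonium sulfate, 50 mM MES pH 7.1, 1% DMSO, room temperature.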

[3] = read-out: TPH1 Range (TPH1 inhibition IC50)
[4] = TPH1 Range (TPH1 inhibition IC50)

Row | Compound | Efficacy (statistical significance of reduction of mucosal 5-HT concentrations relative to vehicle) [1] | pIC50 [2, 3] | pIC50 [2, 4]
1 | Cc1ccn(-c2ccc(Cl)cc2[C@@H](Oc2cc(N3CCC4(CC3)CNC(C(=O)O)C4)nc(N)n2)C(F)(F)F)n1 (stereo partly drawn) [Example 10k, 8-(2-amino-6-((R)-1-(5-chloro-2-(3-methyl-1H-pyrazol-1-yl)phenyl)-2,2,2-trifluoroethoxy)pyrimidin-4-yl)-2,8-diazaspiro[4.5]decane-3-carboxylic acid] | * (* refers to P<0.05) | 6.52 to 7.30 | –
2 | Cc1ccc([C@@H](Oc2cc(N3CCC4(CC3)CN[C@H](C(=O)O)C4)nc(N)n2)C(F)(F)F)c(-n2ccc(C)n2)n1 [Example 11, (S)-8-(2-amino-6-((R)-2,2,2-trifluoro-1-(6-methyl-2-(3-methyl-1H-pyrazol-1-yl)pyridin-3-yl)ethoxy)pyrimidin-4-yl)-2,8-diazaspiro[4.5]decane-3-carboxylic acid] | **** (and refers to P<0.0005) | 6.52 to 7.30 | –
3 | CCCc1ccc([C@@H](Oc2cc(N3CCC4(CC3)CN[C@H](C(=O)O)C4)nc(N)n2)C(F)(F)F)c(-n2ccc(C)n2)c1 [Example 12b, (S)-8-(2-amino-6-((R)-2,2,2-trifluoro-1-(2-(3-methyl-1H-pyrazol-1-yl)-4-propylphenyl)ethoxy)pyrimidin-4-yl)-2,8-diazaspiro[4.5]decane-3-carboxylic acid] | * (* refers to P<0.05) | > 7.30 | –
4 | Cc1ccn(-c2cc(C(=O)O)ccc2[C@@H](Oc2cc(N3CCC4(CC3)CN[C@H](C(=O)O)C4)nc(N)n2)C(F)(F)F)n1 [Example 16, (S)-8-(2-amino-6-((R)-1-(4-carboxy-2-(3-methyl-H-pyrazol-1-yl)phenyl)-2,2,2-trifluoroethoxy)pyrimidin-4-yl)-2,8-diazaspiro[4.5]decane-3-carboxylic acid] | ** (** refers to P<0.01) | 5.52 to 6.52 | –
5 | CCCCc1ccc(-n2ccc(C)n2)c([C@@H](Oc2cc(N3CCC4(CC3)CN[C@H](C(=O)O)C4)nc(N)n2)C(F)(F)F)c1 [Example 22c, (S)-8-(2-amino-6-((R)-1-(5-butyl-2-(3-methyl-1H-pyrazol-1-yl)phenyl)-2,2,2-trifluoroethoxy)pyrimidin-4-yl)-2,8-diazaspiro[4.5]decane-3-carboxylic acid] | * (* refers to P<0.05) | > 7.30 | –
6 | Nc1nc(O[C@H](c2ccc(Cl)cc2-c2ccc(Cl)s2)C(F)(F)F)cc(N2CCC3(CC2)CN[C@H](C(=O)O)C3)n1 [Example 34s, (S)-8-(2-amino-6-((R)-1-(4-chloro-2-(5-chlorothiophen-2-yl)phenyl)-2,2,2-trifluoroethoxy)pyrimidin-4-yl)-2,8-diazaspiro[4.5]decane-3-carboxylic acid] | ** (** refers to P<0.01) | 6.52 to 7.30 | –
7 | Nc1nc(O[C@H](c2ccc(Cl)cc2-c2cccc(S(N)(=O)=O)c2)C(F)(F)F)cc(N2CCC3(CC2)CN[C@H](C(=O)O)C3)n1 [Example 34u, (S)-8-(2-amino-6-((R)-1-(5-chloro-3′-sulfamoyl-[1,1′-biphenyl]-2-yl)-2,2,2-trifluoroethoxy)pyrimidin-4-yl)-2,8-diazaspiro[4.5]decane-3-carboxylic acid] | * (* refers to P<0.05) | – | > 7.30
8 | Nc1nc(O[C@H](c2ccc(Cl)cc2-c2cccc(O)c2)C(F)(F)F)cc(N2CCC3(CC2)CN[C@H](C(=O)O)C3)n1 [Example 34v, (S)-8-(2-amino-6-((R)-1-(5-chloro-3′-hydroxy-[1,1′-biphenyl]-2-yl)-2,2,2-trifluoroethoxy)pyrimidin-4-yl)-2,8-diazaspiro[4.5]decane-3-carboxylic acid] | * (* refers to P<0.05) | > 7.30 | –
9 | CS(=O)(=O)c1cccc(-c2cc(Cl)ccc2[C@@H](Oc2cc(N3CCC4(CC3)CN[C@H](C(=O)O)C4)nc(N)n2)C(F)(F)F)c1 [Example 34w, (S)-8-(2-amino-6-((R)-1-(5-chloro-3′-(methylsulfonyl)-[1,1′-biphenyl]-2-yl)-2,2,2-trifluoroethoxy)pyrimidin-4-yl)-2,8-diazaspiro[4.5]decane-3-carboxylic acid] | *** (*** refers to P<0.005) | – | > 7.30
10 | COc1cccc(-c2ccc(C(Oc3cc(N4CCC5(CC4)CN[C@H](C(=O)O)C5)nc(N)n3)C(F)(F)F)cc2)c1 (stereo partly drawn) [Example 55al, (3S)-8-(2-amino-6-(2,2,2-trifluoro-1-(3′-methoxy-[1,1′-biphenyl]-4-yl)ethoxy)pyrimidin-4-yl)-2,8-diazaspiro[4.5]decane-3-carboxylic acid] | * (* refers to P<0.05) | 6.52 to 7.30 | –
11 | Nc1nc(O[C@H](c2ccc(-c3cccc(F)c3)cc2)C(F)(F)F)cc(N2CCC3(CC2)CN[C@H](C(=O)O)C3)n1 [Example 55am, (S)-8-(2-amino-6-((R)-2,2,2-trifluoro-1-(3′-fluoro-[1,1′-biphenyl]-4-yl)ethoxy)pyrimidin-4-yl)-2,8-diazaspiro[4.5]decane-3-carboxylic acid] | *** (*** refers to P<0.005) | 6.52 to 7.30 | –
12 | COc1cccc(-c2ccc([C@@H](Oc3cc(N4CCC5(CC4)CN[C@H](C(=O)O)C5)nc(N)n3)C(F)(F)F)cc2)c1 [Example 55an, (S)-8-(2-amino-6-((R)-2,2,2-trifluoro-1-(3′-methoxy-[1,1′-biphenyl]-4-yl)ethoxy)pyrimidin-4-yl)-2,8-diazaspiro[4.5]decane-3-carboxylic acid] | *** (*** refers to P<0.005) | 6.52 to 7.30 | –
13 | Cc1n[nH]c2cc(-c3ccc([C@@H](Oc4cc(N5CCC6(CC5)CN[C@H](C(=O)O)C6)nc(N)n4)C(F)(F)F)cc3)ccc12 [Example 55az, (S)-8-(2-amino-6-((R)-2,2,2-trifluoro-1-(4-(3-methyl-1H-indazol-6-yl)phenyl)ethoxy)pyrimidin-4-yl)-2,8-diazaspiro[4.5]decane-3-carboxylic acid] | *** (*** refers to P<0.005) | > 7.30 | –
14 | Nc1nc(O[C@H](c2ccc(-c3ccc4c(c3)CCNC4=O)cc2)C(F)(F)F)cc(N2CCC3(CC2)CN[C@H](C(=O)O)C3)n1 [Example 55bc, (S)-8-(2-amino-6-((R)-2,2,2-trifluoro-1-(4-(1-oxo-1,2,3,4-tetrahydroisoquinolin-6-yl)phenyl)ethoxy)pyrimidin-4-yl)-2,8-diazaspiro[4.5]decane-3-carboxylic acid] | ** (** refers to P<0.01) | > 7.30 | –
15 | Nc1nc(O[C@H](c2ccc(-c3ccc4cnccc4c3)cc2)C(F)(F)F)cc(N2CCC3(CC2)CN[C@H](C(=O)O)C3)n1 [Example 55bd, (S)-8-(2-amino-6-((R)-2,2,2-trifluoro-1-(4-(isoquinolin-6-yl)phenyl)ethoxy)pyrimidin-4-yl)-2,8-diazaspiro[4.5]decane-3-carboxylic acid] | *** (*** refers to P<0.005) | – | > 7.30
16 | Nc1nc(O[C@H](c2ccc(-c3ccc4ncsc4c3)cc2)C(F)(F)F)cc(N2CCC3(CC2)CN[C@H](C(=O)O)C3)n1 [Example 55k, (S)-8-(2-amino-6-((R)-1-(4-(benzo[d]thiazol-6-yl)phenyl)-2,2,2-trifluoroethoxy)pyrimidin-4-yl)-2,8-diazaspiro[4.5]decane-3-carboxylic acid] | * (* refers to P<0.05) | 6.52 to 7.30 | –
17 | (3S)-8-(2-amino-6-(2,2,2-trifluoro-1-(3′-fluoro- [1,1′-biphenyl]-4-yl)ethoxy)pyrimidin-4-yl)-2,8- diazaspiro[4.5]decane-3-carboxylic acid [Example 55ak] | ** (** refers to P<0.01) | 5.52 to 6.52 | –
